Assay results as given in patent US20260124315A1, “CATALYST AUGMENTED TARGET SPECIFIC POLYPEPTIDE” (TECHNISCHE UNIVERSITAT BERLIN, priority 2022, published 2026).
Like-named read-outs stand apart in the source and are kept apart here. No end group written: not given here.

Assays:
[1] = system: SK-BR-3 breast cancer cells; assay: Dose-response of paclitaxel versus paclitaxel prodrug in SK-BR-3 cells; type: cell-based; settings: Homo sapiens, semilog dose-response
Text: This vast drop of anticancer activity highlights the essential role of the C2′-OH of PTX for binding its target.

SK-BR-3 cells [2] = assay: Prodrug-into-drug conversion, extracellular, SK-BR-3; type: cell-based; settings: for catalytic conversion of ProPTX into paclitaxel in cell culture: catalyst 1.4 μM + ProPTX 0.3 μM, SK-BR-3; for cell death: in combination with ProPTX 0.3 μM, SK-BR-3, 5 days, PrestoBlue
Description: Error bars: LSD from n=2. Significance was determined by one-way analysis of variance (ANOVA): ^nsP>0.05, *P<0.05.
Error bars: ±SD from n=3.
Extracellular conversion. […] The cells treated with PTX and ProPTX at 0.3 μM were used as positive and negative controls, respectively. After 5d, PrestoBlue cell viability reagent (10% v/v) was added to each well and the plate was incubated for 90 min. […] Experiments were performed in triplicates.
SK-BR-3 cells were seeded and incubated with a solution of Pd(OAc)2 or Pd-peptide (Pd-HRGDHC) in combination with either DMSO or ProPTX (0.3 μM). After 5 days, Presto blue cell viability reagent was added and fluorescence emission was detected using a multilabel plate reader.
After 5d, Presto blue cell viability reagent was added to each well and fluorescence emission was detected using a multilabel fluorescence reader.

[3] = Fluorogenic catalysis of ProRes in PBS versus serum (10% FBS in PBS); settings: 37° C., 24 h
Description: (a) Catalytic deprotection of the propargylated dye (ProRes, 100 μM) occurs in the presence of either Pd(OAc)2 (Pd, 1.4 μM), or in the presence of NB-HRGDH-Pd (NB—Pd, 1.4 μM). The catalysis was performed at physiological conditions (pH 7.4, 37° C.) in PBS or in serum (10% FBS in PBS). The fluorescence measurements were normalised against the value of fluorescence after catalysis in PBS (100%) and corrected by the fluorescence of the product, Resorufin, in PBS and serum, respectively. (b) Scheme representing the catalysis of ProRes by NB—Pd in the presence of serum and the catalytic deactivation of Pd(OAc)2 by serum.
In solution. […] The mixtures were shaken at 700 rpm and 37° C. in a Thermomixer, and reactions were monitored after 24 h using a FLUOstar Omega multilabel reader (Ex/Em: 540/590 nm). […] The fluorescence measurements were normalised against the value of fluorescence after catalysis in PBS (100%) and corrected by the fluorescence of the product, Resorufin, in PBS and serum, respectively.
Pd(OAc)2 and Pd-peptide (Pd-HRGDHC) were incubated with the previously described sensor (ProRes) in PBS or in 10% FBS—PBS at 37° C. in a Thermomixer, and reactions were monitored after 24 h using a multilabel reader. Fluorescence increment was observed after catalysis. […]

SK-BR-3 cells [4] = settings: read-out: EC50 (cell viability), SK-BR-3, day 5, PrestoBlue
Description: Dose-response curves of Pd (Pd(OAc)2) and Pd-peptide (HRGDHC-Pd) at different concentrations (100-1 μM) in HER2+ breast cancer cell line SK-BR-3. Cell viability was measured on day 5 using PrestoBlue reagent. Error bars: ±SD from n=3.
Cell viability was measured on day 5 using PrestoBlue reagent. Error bars: ±SD from n=3.
Cells were seeded in a 96-well plate format (at 2,000 cells per well) and incubated for 24 h before treatment. […] Untreated cells were incubated with DMSO (0.1% v/v). After 5d of incubation, cell viability was determined as described above. All conditions were normalised to the untreated cells (100%) and curves fitted using GraphPad Prism using a sigmoidal variable slope curve. Experiments were performed in triplicates.
Presto blue reagent was added to quantitatively measure viability by fluorescence detection and EC50 values were calculated by plotting dose-response curves.

[5] = Catalytic screening of metallopeptides (ProRes to resorufin fluorescence); settings: Pd-peptides 10 μM, ProRes 100 μM, PBS, 37° C., 24 h
Description: Catalytic screening of metallopeptides. Metallopeptides, either mixed or as individual Pd-peptides (Pd-HRGDHC (SEQ ID NO: 6) or Pd-LLEYLKR (SEQ ID NO: 7) (10 μM) were incubated with Pd-labile off/on sensor O-propargyl-resorufin (ProRes)^2 (100 μM) in PBS (500 μL). The mixtures were shaken at 700 rpm and 37° C. in a Thermomixer and reactions were monitored after 24 h using a FLUOstar Omega multilabel reader (Ex/Em: 540/590 nm).

[6] = system: HER2 negative cells MCF-7; assay: Prodrug-into-drug conversion, intracellular (1 h incubation, wash), MCF-7; type: cell-based; settings: NB—Pd 1 h, washed, then ProPTX 0.3 μM, 5 days
Description: Cell viability was measured on day 5 using PrestoBlue reagent. Error bars: LSD from n=3. Significance was determined by one-way analysis of variance (ANOVA): ^nsP>0.05, *P<0.05, **P<0.01, ****P<0.0001.
Intracellular conversion. SK-BR-3 and MCF-7 cells were seeded in a 96-well plate format (at 2,000 cells per well) and incubated for 24 h before treatment. Each well was then replaced with a solution of NB—Pd (20 μg/mL, 1.4 μM) in culture media and incubated for 1 h. Cells were then washed with PBS and fresh media containing either DMSO (0.1% v/v) or ProPTX (0.3 μM) was added. The cells treated with PTX and ProPTX at 0.3 μM were used as positive and negative controls, respectively. After 5d, PrestoBlue cell viability reagent (10% v/v) was added to each well and the plate was incubated for 90 min. Fluorescence emission was detected using a FLUOstar Omega multilabel reader (Ex/Em: 540/590 nm). Experiments were performed in triplicates.
SK-BR-3 and MCF-7 cells (HER2 positive and negative respectively) were seeded and incubated with a solution of NB—Pd for 1 h. Cells were then washed with PBS and fresh media containing either DMSO or ProPTX (0.3 μM) was added. After 5 days, Presto blue cell viability reagent was added and fluorescence emission was detected. […] Results are to be found in FIG. 6.

With `CC(=O)O[C@H]1C(=O)[C@@]2(C)[C@H]([C@H](OC(=O)c3ccccc3)[C@]3(O)C[C@H](OC(=O)[C@H](O)[C@@H](NC(=O)c4ccccc4)c4ccccc4)C(C)=C1C3(C)C)[C@]1(OC(C)=O)CO[C@@H]1C[C@@H]2O` [PTX, paclitaxel] the EC50 [1] was 0.0018 µM.

In the case of `C1=C\CC/C=C\CC/1.[Cl][Pd][Cl]` [Pd(Cod)Cl2, reference compound], the “catalytic conversion of ProPTX into paclitaxel in cell culture” value (“catalytic conversion” for short) (SK-BR-3 cells [2]) is reported as “poor catalytic efficiency”.

For `CC(=O)[O-].CC(=O)[O-].[Pd+2]` [Pd(OAc)2, reference compound], the “catalytic activity in serum” value ([3]; 10% FBS-PBS) was “lost its catalytic properties”, the “catalytic conversion” value (SK-BR-3 cells [2]) was “Non-significant catalysis” and the EC50 (SK-BR-3 cells [4]) was 23 µM. For the same molecule, the EC50 (SK-BR-3 cells [4]; listed as Pd) was 39 µM.

With HRGDHC-OH [Pd-peptide] the “catalytic activity (conversion of ProRes into fluorescent resorufin)” value [5] was “show catalytic activity”, the “catalytic activity in serum relative to catalytic activity in PBS” value ([3]; 10% FBS-PBS vs PBS) was “at least 18%” and the “catalytic conversion” value (SK-BR-3 cells [2]) was “converting the prodrug”. It also gave a cell death (SK-BR-3 cells [2]) greater than 40%.

For “LLEYLKR (also: Pd complex) [reference compound]”, the “catalytic activity (conversion of ProRes into fluorescent resorufin)” value [5] was “does not show any catalytic activity”.

B1: NB—Pd: HER2 nanobody-HRGDH fusion complexed with Pd after incubation with Pd(OAc)2 at molar ratio 1:1 (conjugate)
VHH: QVQLQESGGGSVQAGGSLKLTCAASGYIFNSCGMGWYRQSPGRERELVSRISGDGDTWHKESVKGRFTISQDNVKKTLYLQMNSLKPEDTAVYFCAVCYNLETYWGQGTQVTVSSGGGGSHRGDHENLYFQSHHHHHH
With B1 the cell death (SK-BR-3 cells [2]) was greater than 70% and the “effect on cell viability” value [6] was “no effect”.
